We go through two molecules from patent US12161654B2, “Stability of vitamin D in β-hydroxy-β-methylbutyrate (HMB)” (Metabolic Technologies, LLC, priority 2018, dated 2024).

For data set [1] the following is noted: healthy young or old adults; cited from earlier work.
The conditions of data set [2]: after HMB is fed; cited from earlier work.
Data set [3] can be described thus: pH of HMBFA and buffered HMBFA. The format is physicochemical. From the text: In most instances, the HMB utilized in clinical studies and marketed as an ergogenic aid has been in the calcium salt form. Recent advances have allowed the HMB to be manufactured in a free acid form for use human and animal uses, and preferably as a nutritional supplement or incorporated into foodstuffs. […] The pH of HMBFA is <3.
Preparation of Buffered HMB in the Free Acid Form (HMBFA) Briefly, 400 g HMBFA (TSI lot 12111036) was weigh into a one liter beaker and then 37.8 g of with potassium carbonate (K2CO3) was added to the HMBFA. A stir bar was added and the mixture was stirred for 60 h. The resulting pH was approximately 4.5. Alternatively, the reaction may be accelerated by mixing water (35 g) with potassium carbonate (37) g and then adding HMBFA (400 g).

Some results are limits rather than exact numbers.

For the molecule `CC(C)(O)CC(=O)O` [HMB, β-hydroxy-β-methylbutyrate], the side effects result in data set [1] is “no side effects”. In data set [2], the “loss of HMB to urine” value is 20-50%.

The molecule `CC(C)(O)CC(=O)O` [HMBFA, β-hydroxy-β-methylbutyrate] yielded a pH in data set [3] of less than 3.
